Laboratory results reported in US12521440B2, “Degradation of bruton's tyrosine kinase (BTK) by conjugation of BTK inhibitors with E3 ligase ligand and methods of use” (BeOne Medicines I GmbH, priority 2021, dated 2026).
Structures can show the parent of a compound that is named as a salt.

Columns and labels:
BTK = target: T1, BTK (Homo sapiens, UniProt Q06187); assay: BTK degradation in TMD-8 cells (HTRF assay); assay type: cell-based; conditions: 6 h treatment, HTRF BTK degradation IC50 (DC50)
T1 construct: endogenous in cells; host or cells: TMD-8 cells
Experimental: TMD-8 cells were treated with compounds diluted in 0.2% DMSO, dilution was done according to the following protocol: (1) making 500×stock solution in DMSO from 1 mM by 6-fold dilution, total 8 doses were included; (2) making 2×solution in cell culture medium by transferring 0.5 μl 500×stock solution into 125 μl medium; (3) adding 15 μl of 2×solution to cells for incubation of 6 h.
After 6 h treatment, 10 μl 4×lysis buffer was added to each well; the plate was sealed and incubated for 30 min at room temperature on a plate shaker; Once the cells was lysed, 16 μL of cell lysate were transferred to a PE 384-well HTRF detection plate; 4 μL of pre-mixed HTRF antibodies were added to each well; the plate was covered with a plate sealer, and then spinned at 1000 rpm for 1 min, then incubated overnight at room temperature; the results were read on BMG PheraStar with HTRF protocol (337 nm-665 nm-620 nm).
(§1) The IC50 (DC50) value of a compound can be obtained by fitting the following equation Y=Bottom+(TOP−Bottom)/(1+((IC50/X)^hillslope)) wherein, X and Y are known values, and IC50, Hillslope, Top and Bottom are the parameters obtained by fitting with software. Y is the inhibition percentage (calculated from the equation), X is the concentration of the compound; IC50 is the concentration of the compound when the 50% inhibition is reached. The smaller the IC50 value is, the stronger the inhibitory ability of the compound is. Vice versa, the higher the IC50 value is, the weaker the ability the inhibitory ability of the compound is; Hillslope represents the slope of the fitted curve, generally around 1*; Bottom represents the minimum value of the curve obtained by data fitting, which is generally 0%±20%; Top represents the maximum value of the curve obtained by data fitting, which is generally 100%±20%. The experimental data were fitted by calculating and analyzing with Dotmatics data analysis software. HEK-293 Cell Treatment

HEK-293 cells = assay: HEK-293 cytotoxicity detection (CellTiter-Glo); assay type: cell-based; conditions: Homo sapiens, 72 h incubation, read-out: HEK293
From the text: as §1
HEK-293 cells were treated with compounds diluted in 0.2% DMSO, dilution was done according to the following protocol: (1) making 500×stock solution in DMSO from 5 mM by 4-fold dilution, total 8 doses were included; (2) making 2×solution in cell culture medium by transferring 0.5 ul 500×stock solution into 125 ul medium; (3) adding 50 ul of 2×solution to cells for incubation of 72 h.
25 μl of the CellTiter-Glo® Reagent [(Promega)—Cat No. G7572] was added to each well in the 96-well plate. The contents were mixed for 2 minutes on an orbital shaker to induce cell lysis. The plate was then allowed to incubate at room temperature for 10 minutes to stabilize luminescent signal. Luminescence was recorded on BMG PheraStar with luminescence protocol.
as §1, with “IC50” for “IC50 (DC50)”, “Wherein,” for “wherein,”, “software.” for “software. HEK-293 Cell Treatment”

T1 sequence (Q06187 whole entry): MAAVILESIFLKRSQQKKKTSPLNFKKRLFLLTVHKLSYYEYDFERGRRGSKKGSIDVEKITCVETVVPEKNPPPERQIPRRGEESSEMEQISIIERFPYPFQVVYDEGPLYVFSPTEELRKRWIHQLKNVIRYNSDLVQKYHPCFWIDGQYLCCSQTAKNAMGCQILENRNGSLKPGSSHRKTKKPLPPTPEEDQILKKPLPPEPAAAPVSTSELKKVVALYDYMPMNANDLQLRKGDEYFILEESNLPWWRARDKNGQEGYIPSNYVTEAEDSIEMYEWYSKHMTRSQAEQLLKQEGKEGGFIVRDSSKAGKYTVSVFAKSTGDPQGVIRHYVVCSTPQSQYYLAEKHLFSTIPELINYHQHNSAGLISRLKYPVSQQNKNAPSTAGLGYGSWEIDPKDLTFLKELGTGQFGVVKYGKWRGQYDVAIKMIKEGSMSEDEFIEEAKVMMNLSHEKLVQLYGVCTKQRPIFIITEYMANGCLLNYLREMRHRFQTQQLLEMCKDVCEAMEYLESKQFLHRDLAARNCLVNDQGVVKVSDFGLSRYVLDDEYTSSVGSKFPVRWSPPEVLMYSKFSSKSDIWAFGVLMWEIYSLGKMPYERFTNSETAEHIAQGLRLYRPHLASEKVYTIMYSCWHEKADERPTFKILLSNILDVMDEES

Row | Compound | DC50 (BTK) [nM] | IC50 (HEK-293 cells) [nM]
1 | Cc1cc(-c2cc(Nc3ccc(N4CCN(CCc5ccc6c(c5)oc(=O)n6C5CCC(=O)NC5=O)CC4)cn3)ncn2)ccc1[C@@H](C)NC(=O)c1nc(C(C)(C)C)no1 (stereo partly drawn) [Example 49, 3-(tert-butyl)-N-((1R)-1-(4-(6-((5-(4-(2-(3-(2,6-dioxopiperidin-3-yl)-2-oxo-2,3-dihydrobenzo[d]oxazol-6-yl)ethyl)piperazin-1-yl)pyridin-2-yl)amino)pyrimidin-4-yl)-2-methylphenyl)ethyl)-1,2,4-oxadiazole-5-carboxamide] | 0.486 | > 10000
2 | Cc1cc(-c2cc(Nc3ccc(N4CCN(CC5CCN(c6ccc(N7CCC(=O)NC7=O)cc6)CC5)CC4)cn3)ncn2)c(F)cc1[C@@H](C)NC(=O)c1nc(C(C)(C)C)no1 [Example 8, (R)-3-(tert-butyl)-N-(1-(4-(6-((5-(4-((1-(4-(2,4-dioxotetrahydropyrimidin-1(2H)-yl)phenyl)piperidin-4-yl)methyl)piperazin-1-yl)pyridin-2-yl)amino)pyrimidin-4-yl)-5-fluoro-2-methylphenyl)ethyl)-1,2,4-oxadiazole-5-carboxamide] | 1.48 | > 10000
3 | Cc1cc(-c2cc(Nc3ccc(N4CCN(CC5CN(c6ccc(N7CCC(=O)NC7=O)cc6)C5)CC4)cn3)ncn2)ccc1[C@@H](C)NC(=O)c1nc(C(C)(C)C)no1 [Example 22, (R)-3-(tert-butyl)-N-(1-(4-(6-((5-(4-((1-(4-(2,4-dioxotetrahydropyrimidin-1(2H)-yl)phenyl)azetidin-3-yl)methyl)piperazin-1-yl)pyridin-2-yl)amino)pyrimidin-4-yl)-2-methylphenyl)ethyl)-1,2,4-oxadiazole-5-carboxamide] | 1.58 | > 10000
4 | Cc1cc(-c2cc(Nc3cccc(N4CCN(CC5CCN(c6ccc(N7CCC(=O)NC7=O)cc6)CC5)CC4)c3)ncn2)c(F)cc1[C@@H](C)NC(=O)c1nc(C(C)(C)C)no1 [Example 5, (R)-3-(tert-butyl)-N-(1-(4-(6-((3-(4-((1-(4-(2,4-dioxotetrahydropyrimidin-1(2H)-yl)phenyl)piperidin-4-yl)methyl)piperazin-1-yl)phenyl)amino)pyrimidin-4-yl)-5-fluoro-2-methylphenyl)ethyl)-1,2,4-oxadiazole-5-carboxamide] |  | > 10000
5 | Cc1cc(-c2cc(Nc3ccc(N4CCN(CC5CCN(c6ccc(N7CCC(=O)NC7=O)cc6)CC5)CC4)cc3)ncn2)c(F)cc1[C@@H](C)NC(=O)c1nc(C(C)(C)C)no1 [Example 1, (R)-3-(tert-butyl)-N-(1-(4-(6-((4-(4-((1-(4-(2,4-dioxotetrahydropyrimidin-1(2H)-yl)phenyl)piperidin-4-yl)methyl)piperazin-1-yl)phenyl)amino)pyrimidin-4-yl)-5-fluoro-2-methylphenyl)ethyl)-1,2,4-oxadiazole-5-carboxamide] | 21.3 | > 10000
6 | Cc1cc(-c2cc(Nc3cccc(N4CCN(C5CC(c6ccc(NC7CCC(=O)NC7=O)cc6)C5)CC4)c3)ncn2)c(F)cc1[C@@H](C)NC(=O)c1nc(C(C)(C)C)no1 (stereo partly drawn) [Example 6, 3-(tert-butyl)-N-((1R)-1-(4-(6-((3-(4-(3-(4-((2,6-dioxopiperidin-3-yl)amino)phenyl)cyclobutyl)piperazin-1-yl)phenyl)amino)pyrimidin-4-yl)-5-fluoro-2-methylphenyl)ethyl)-1,2,4-oxadiazole-5-carboxamide] | 48.1 | > 10000
7 | Cc1cc(-c2cc(Nc3ccc(N4CCN(CC5CCN(c6ccc(N7CCC(=O)NC7=O)cc6)CC5)CC4)c(C)n3)ncn2)ccc1[C@@H](C)NC(=O)c1nc(C(C)(C)C)no1 [Example 61, (R)-3-(tert-butyl)-N-(1-(4-(6-((5-(4-((1-(4-(2,4-dioxotetrahydropyrimidin-1(2H)-yl)phenyl)piperidin-4-yl)methyl)piperazin-1-yl)-6-methylpyridin-2-yl)amino)pyrimidin-4-yl)-2-methylphenyl)ethyl)-1,2,4-oxadiazole-5-carboxamide] | 1.65 | > 10000
8 | Cc1cc(-c2cc(Nc3ccc(N4CCN(CCc5cccc6c5oc(=O)n6C5CCC(=O)NC5=O)CC4)cn3)ncn2)ccc1[C@@H](C)NC(=O)c1nc(C(C)(C)C)no1 (stereo partly drawn) [Example 51, 3-(tert-butyl)-N-((1R)-1-(4-(6-((5-(4-(2-(3-(2,6-dioxopiperidin-3-yl)-2-oxo-2,3-dihydrobenzo[d]oxazol-7-yl)ethyl)piperazin-1-yl)pyridin-2-yl)amino)pyrimidin-4-yl)-2-methylphenyl)ethyl)-1,2,4-oxadiazole-5-carboxamide formate] | 1.35 | > 10000
9 | Cc1cc(-c2cc(Nc3ccc(N4CCN(C(=O)C5CN(c6ccc(N7CCC(=O)NC7=O)cc6)C5)CC4)cn3)ncn2)ccc1[C@@H](C)NC(=O)c1nc(C(C)(C)C)no1 [Example 25, (R)-3-(tert-butyl)-N-(1-(4-(6-((5-(4-(1-(4-(2,4-dioxotetrahydropyrimidin-1(2H)-yl)phenyl)azetidine-3-carbonyl)piperazin-1-yl)pyridin-2-yl)amino)pyrimidin-4-yl)-2-methylphenyl)ethyl)-1,2,4-oxadiazole-5-carboxamide] | 0.935 | > 10000
10 | Cc1cc(-c2cc(Nc3ccc(N4CC5(CN(C(=O)C6CN(c7ccc(N8CCC(=O)NC8=O)cc7)C6)C5)C4)cn3)ncn2)ccc1[C@@H](C)NC(=O)c1nc(C(C)(C)C)no1 [Example 35, (R)-3-(tert-butyl)-N-(1-(4-(6-((5-(6-(1-(4-(2,4-dioxotetrahydropyrimidin-1(2H)-yl)phenyl)azetidine-3-carbonyl)-2,6-diazaspiro [3.3]heptan-2-yl)pyridin-2-yl)amino)pyrimidin-4-yl)-2-methylphenyl)ethyl)-1,2,4-oxadiazole-5-carboxamide] | 0.981 | > 10000
11 | Cc1cc(-c2cc(Nc3ccc(N4CCN(C5CN(c6ccc(N7CCC(=O)NC7=O)cc6)C5)CC4)cn3)ncn2)ccc1[C@@H](C)NC(=O)c1nc(C(C)(C)C)no1 [Example 40, (R)-3-(tert-butyl)-N-(1-(4-(6-((5-(4-(1-(4-(2,4-dioxotetrahydropyrimidin-1(2H)-yl)phenyl)azetidin-3-yl)piperazin-1-yl)pyridin-2-yl)amino)pyrimidin-4-yl)-2-methylphenyl)ethyl)-1,2,4-oxadiazole-5-carboxamide] | 0.382 | > 10000
12 | Cc1cc(-c2cc(Nc3ccc(N4CCN(C(=O)C5CN(c6ccc(C7CCC(=O)NC7=O)cc6)C5)CC4)cn3)ncn2)ccc1[C@@H](C)NC(=O)c1nc(C(C)(C)C)no1 (stereo partly drawn) [Example 26, 3-(tert-butyl)-N-((1R)-1-(4-(6-((5-(4-(1-(4-(2,6-dioxopiperidin-3-yl)phenyl)azetidine-3-carbonyl)piperazin-1-yl)pyridin-2-yl)amino)pyrimidin-4-yl)-2-methylphenyl)ethyl)-1,2,4-oxadiazole-5-carboxamide] | 0.899 | > 10000
13 | Cc1cc(-c2cc(Nc3ccc(N4CCN(CCc5cc(F)c([C@H]6CCC(=O)NC6=O)c(F)c5)CC4)cn3)ncn2)ccc1[C@@H](C)NC(=O)c1nc(C(C)(C)C)no1 [Example 46, 3-(tert-butyl)-N—((R)-1-(4-(6-((5-(4-(4-((R)-2,6-dioxopiperidin-3-yl)-3,5-difluorophenethyl)piperazin-1-yl)pyridin-2-yl)amino)pyrimidin-4-yl)-2-methylphenyl)ethyl)-1,2,4-oxadiazole-5-carboxamide] |  | > 10000
